Assay results reported in PubChem BioAssay AID248 (DTP/NCI, 2004).
Several values for one entry are separate records, joined by “and”; a condition that tells them apart may be missing. Identical values can stand only once. Inconclusive results and toxic doses are left out. Rule as the data show it: active = T/C of 150% or more; inactive = T/C below 125%.

Test system: L1210 leukemia ip in BDF1 mice, survival T/C
Test: NCI In Vivo Anticancer Drug Screen. Data for tumor model L1210 Leukemia (intraperitoneal) in B6D2F1 (BDF1) mice
Conditions: endpoint: mean survival time, higher = longer survival
Method in brief: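 Transplantable tumor model; survival measured in treated vs vehicle control mice. Value = treated/control.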

[1] = dose: 100.0 mg/kg/injection, schedule: Q01DX009 (ip), vehicle: saline with Tween-80
[2] = dose: 100.0 mg/kg/injection, schedule: Q04DX003 (ip), vehicle: saline with Tween-80
[3] = dose: 200.0 mg/kg/injection, schedule: Q01DX009 (ip), vehicle: saline with Tween-80
[4] = dose: 200.0 mg/kg/injection, schedule: Q04DX003 (ip), vehicle: saline with Tween-80
[5] = dose: 400.0 mg/kg/injection, schedule: Q01DX009 (ip), vehicle: saline with Tween-80
[6] = dose: 400.0 mg/kg/injection, schedule: Q04DX003 (ip), vehicle: saline with Tween-80
[7] = dose: 100.0 mg/kg/injection, schedule: Q01DX Z (ip), vehicle: methylcellulose (MC)
[8] = dose: 200.0 mg/kg/injection, schedule: Q01DX Z (ip), vehicle: methylcellulose (MC)
[9] = dose: 100.0 mg/kg/injection, schedule: Q04DX003 (ip), vehicle: saline
[10] = dose: 200.0 mg/kg/injection, schedule: Q04DX003 (ip), vehicle: saline
[11] = dose: 400.0 mg/kg/injection, schedule: Q04DX003 (ip), vehicle: saline
[12] = dose: 100.0 mg/kg/injection, schedule: Q01DX001 (ip), vehicle: Klucel (hydroxypropylcellulose) (HPC)
[13] = dose: 200.0 mg/kg/injection, schedule: Q01DX001 (ip), vehicle: Klucel (hydroxypropylcellulose) (HPC)
[14] = dose: 100.0 mg/kg/injection, schedule: Q01DX001 (ip), vehicle: saline
[15] = dose: 100.0 mg/kg/injection, schedule: Q01DX009 (ip), vehicle: saline
[16] = dose: 200.0 mg/kg/injection, schedule: Q01DX001 (ip), vehicle: saline
[17] = dose: 200.0 mg/kg/injection, schedule: Q01DX009 (ip), vehicle: saline
[18] = dose: 400.0 mg/kg/injection, schedule: Q01DX001 (ip), vehicle: saline
[19] = dose: 400.0 mg/kg/injection, schedule: Q01DX009 (ip), vehicle: saline
[20] = dose: 50.0 mg/kg/injection, schedule: Q01DX009 (ip), vehicle: Klucel (hydroxypropylcellulose) (HPC)
[21] = dose: 100.0 mg/kg/injection, schedule: Q01DX009 (ip), vehicle: Klucel (hydroxypropylcellulose) (HPC)
[22] = dose: 100.0 mg/kg/injection, schedule: Q04DX003 (ip), vehicle: Klucel (hydroxypropylcellulose) (HPC)

Measured: T/C

COc1cccc(/C=C2\N=C(c3ccccc3)OC2=O)c1
inactive: [1] 102 % of control | [2] 97 % of control | [3] 107 % of control | [4] 94 % of control | [5] 102 % of control and 90 % of control | [6] 93 % of control

Cc1cccc(Nc2nc(N)nc(N)c2N=O)c1
inactive: [7] 102 % of control | dose: 100.0 mg/kg/injection, schedule: Q04DX002 (ip), vehicle: Klucel (hydroxypropylcellulose) (HPC) 101 % of control | [8] 97 % of control | dose: 200.0 mg/kg/injection, schedule: Q04DX002 (ip), vehicle: Klucel (hydroxypropylcellulose) (HPC) 94 % of control | dose: 400.0 mg/kg/injection, schedule: Q04DX002 (ip), vehicle: Klucel (hydroxypropylcellulose) (HPC) 101 % of control

CCCCCCCCCCCCCCCC(=O)N(CCCN)CCCCN(CCCN)C(=O)CCCCCCCCCCCCCCC
inactive: dose: 100.0 mg/kg/injection, schedule: Q01DX001 (ip), vehicle: saline with Tween-80 100 % of control | [1] 103 % of control | [2] 110 % of control | dose: 200.0 mg/kg/injection, schedule: Q01DX001 (ip), vehicle: saline with Tween-80 96 % of control | [3] 96 % of control | [4] 107 % of control | dose: 400.0 mg/kg/injection, schedule: Q01DX001 (ip), vehicle: saline with Tween-80 104 % of control | [5] 96 % of control | [6] 111 % of control

COC(=O)C(N)CSCc1ccccc1 (stereo unspecified)
inactive: [9] 87 % of control | [10] 89 % of control | [11] 94 % of control

CCCCCCCCCCCCCSCCSCCCCCCCCCCCCC
inactive: [12] 96 % of control | [13] 86 % of control | dose: 400.0 mg/kg/injection, schedule: Q01DX001 (ip), vehicle: Klucel (hydroxypropylcellulose) (HPC) 96 % of control

COc1ccccc1N=Nc1c(O)n(-c2ccccc2OC)c(=S)n(-c2ccccc2)c1=O
inactive: [12] 96 % of control | [13] 94 % of control

CCCCCCCCCCCCCCCC(=O)N(CCC)CCC
inactive: dose: 100.0 mg/kg/injection, schedule: Q01DX001 (ip), vehicle: carboxymethylcellulose (CMC) 98 % of control | dose: 100.0 mg/kg/injection, schedule: Q01DX009 (ip), vehicle: carboxymethylcellulose (CMC) 105 % of control and 90 % of control | dose: 100.0 mg/kg/injection, schedule: Q04DX002 (ip), vehicle: carboxymethylcellulose (CMC) 102 % of control | dose: 100.0 mg/kg/injection, schedule: Q04DX003 (ip), vehicle: carboxymethylcellulose (CMC) 102 % of control | dose: 200.0 mg/kg/injection, schedule: Q01DX001 (ip), vehicle: carboxymethylcellulose (CMC) 99 % of control | dose: 200.0 mg/kg/injection, schedule: Q01DX009 (ip), vehicle: carboxymethylcellulose (CMC) 100 % of control and 101 % of control | dose: 200.0 mg/kg/injection, schedule: Q04DX002 (ip), vehicle: carboxymethylcellulose (CMC) 94 % of control | dose: 200.0 mg/kg/injection, schedule: Q04DX003 (ip), vehicle: carboxymethylcellulose (CMC) 104 % of control | dose: 400.0 mg/kg/injection, schedule: Q01DX001 (ip), vehicle: carboxymethylcellulose (CMC) 99 % of control | dose: 400.0 mg/kg/injection, schedule: Q04DX002 (ip), vehicle: carboxymethylcellulose (CMC) 96 % of control | dose: 400.0 mg/kg/injection, schedule: Q04DX003 (ip), vehicle: carboxymethylcellulose (CMC) 104 % of control

CC1OC(=O)C(=O)C1(C)C (stereo unspecified)
inactive: dose: 32.0 mg/kg/injection, schedule: Q01DX001 (ip), vehicle: carboxymethylcellulose (CMC) 100 % of control | dose: 62.5 mg/kg/injection, schedule: Q01DX001 (ip), vehicle: carboxymethylcellulose (CMC) 102 % of control | dose: 125.0 mg/kg/injection, schedule: Q01DX001 (ip), vehicle: carboxymethylcellulose (CMC) 93 % of control | dose: 250.0 mg/kg/injection, schedule: Q01DX001 (ip), vehicle: carboxymethylcellulose (CMC) 100 % of control | dose: 500.0 mg/kg/injection, schedule: Q01DX001 (ip), vehicle: carboxymethylcellulose (CMC) 107 % of control

CC(=O)CCC1CC(=O)OC1(C)C (stereo unspecified)
inactive: [14] 102 % of control and 100 % of control | [15] 104 % of control and 88 % of control | dose: 100.0 mg/kg/injection, schedule: Q04DX003 (ip), vehicle: acetone 93 % of control | [16] 102 % of control and 100 % of control | [17] 96 % of control and 88 % of control | dose: 200.0 mg/kg/injection, schedule: Q04DX003 (ip), vehicle: acetone 117 % of control | [18] 96 % of control and 106 % of control | [19] 98 % of control and 86 % of control | dose: 400.0 mg/kg/injection, schedule: Q04DX003 (ip), vehicle: acetone 101 % of control

CC[n+]1c(C)sc2cc3c(cc21)OCO3
inactive: dose: 25.0 mg/kg/injection, schedule: Q04DX003 (ip), vehicle: Klucel (hydroxypropylcellulose) (HPC) 102 % of control | [20] 103 % of control | dose: 50.0 mg/kg/injection, schedule: Q04DX003 (ip), vehicle: Klucel (hydroxypropylcellulose) (HPC) 107 % of control | [21] 96 % of control | [22] 105 % of control and 109 % of control

CCCCC(CC)C(=O)CC(C)=O (stereo unspecified)
inactive: dose: 50.0 mg/kg/injection, schedule: Q01DX001 (ip), vehicle: saline 103 % of control | [14] 95 % of control | [16] 103 % of control | [18] 97 % of control

NC(CC(O)c1ccccc1)c1ccccc1 (stereo unspecified)
inactive: dose: 75.0 mg/kg/injection, schedule: Q01DX001 (ip), vehicle: carboxymethylcellulose (CMC) 96 % of control

NC1C2C3C=CC(C(C(=O)O)C3C(=O)O)C12 (stereo unspecified)
inactive: [22] 98 % of control | dose: 200.0 mg/kg/injection, schedule: Q04DX003 (ip), vehicle: Klucel (hydroxypropylcellulose) (HPC) 102 % of control | dose: 400.0 mg/kg/injection, schedule: Q04DX003 (ip), vehicle: Klucel (hydroxypropylcellulose) (HPC) 101 % of control

Cc1ccc(S(=O)(=O)N2CCCC2CO)cc1 (stereo unspecified)
inactive: [20] 97 % of control | [21] 101 % of control | dose: 200.0 mg/kg/injection, schedule: Q01DX009 (ip), vehicle: Klucel (hydroxypropylcellulose) (HPC) 101 % of control

OC(c1ccccc1)(c1ccccc1)c1ccncc1
inactive: dose: 50.0 mg/kg/injection, schedule: Q01DX009 (ip), vehicle: saline with Tween-80 96 % of control

CN1C(=O)C(Br)=C(Br)C1=O
inactive: dose: 5.0 mg/kg/injection, schedule: Q01DX001 (ip), vehicle: saline 97 % of control | dose: 10.0 mg/kg/injection, schedule: Q01DX001 (ip), vehicle: saline 94 % of control

O=S(=O)(Nc1ccccn1)c1ccc(N(CCCl)CCCl)cc1
inactive: dose: 100.0 mg/kg/injection, schedule: Q01DX001 (ip), vehicle: other 95 % of control | dose: 200.0 mg/kg/injection, schedule: Q01DX001 (ip), vehicle: other 103 % of control | dose: 400.0 mg/kg/injection, schedule: Q01DX001 (ip), vehicle: other 106 % of control

CCCC(=O)Nc1cccc(OC(=O)NC)c1
inactive: [2] 90 % of control | [6] 88 % of control

Cc1ccc(NC2CNC(=O)NC2=O)cc1 (stereo unspecified)
inactive: [7] 100 % of control | [8] 93 % of control

CCOCC(C(=O)OCC)C(=O)OCC
inactive: [1] 111 % of control | [3] 111 % of control | [5] 97 % of control

N#CC(c1ccc(Br)cc1)C1c2ccccc2-c2ccccc21 (stereo unspecified)
inactive: dose: 50.0 mg/kg/injection, schedule: Q01DX001 (ip), vehicle: Klucel (hydroxypropylcellulose) (HPC) 93 % of control | [12] 91 % of control | [13] 86 % of control

O=C1CCCN1C1=CC2=C(CCc3ccccc32)S(=O)(=O)O1
inactive: [15] 90 % of control | [9] 100 % of control | [17] 90 % of control | [10] 94 % of control | [19] 95 % of control | [11] 108 % of control

COC(=O)c1cncn1C(C)c1ccccc1 (stereo unspecified)
inactive: dose: 25.0 mg/kg/injection, schedule: Q04DX003 (ip), vehicle: saline 97 % of control | dose: 50.0 mg/kg/injection, schedule: Q01DX009 (ip), vehicle: saline 104 % of control | dose: 50.0 mg/kg/injection, schedule: Q04DX003 (ip), vehicle: saline 95 % of control | [15] 109 % of control | [9] 97 % of control and 101 % of control
